Data set [1] relates to 2008 ovarian cancer cells. Kind of data set: MTT cytotoxicity test, cisplatin-sensitive 2008. It counts as cell-based, human. The conditions noted are these: 2008 cisplatin-sensitive, 72 h, ± S.D. On the procedure: The cytotoxic properties of the complexes were also evaluated in a pair of tumor cell lines suitably selected for their sensitivity and resistance to cisplatin (adenocarcinoma cells 2008/C13^*). Cross-resistance profiles were evaluated by means of the resistance factor (RF), defined as the ratio between IC50 values calculated for the resistant cells and those obtained with the sensitive ones (Table 2). The phenomenon of cisplatin resistance is multifactorial in nature. Nevertheless, the main molecular mechanisms involved in drug resistance in C13* cancer cells have largely been identified. Indeed, in this cell line resistance is correlated to high cellular glutathione and thioredoxin reductase levels, reduced cellular drug uptake and enhanced repair of DNA damage. […] The RF values calculated for all derivatives were six- to nine-fold lower than that of cisplatin, clearly indicating the absence of cross-resistance.
(§1) Cisplatin was dissolved in 0.9% NaCl solution.
Triplicate cultures were established for each treatment.
For orientation: Tetrazolium assays rely on reduction of a dye to a coloured formazan, in cell work by metabolically active cells.

The subject of data set [2] is A549 lung carcinoma cells. Kind of data set: cells. As to conditions: for IC50: A549, 72 h, MTT, ± S.D. The protocol: (§2) The cytotoxic activity of the complexes and of the uncoordinated ligands was evaluated by the MTT test on a panel of human tumor cell lines containing examples of pancreatic (BxPC3), colorectal (HCT-15), breast (MCF-7), cervical (A431), and lung (A549) cancers as well as of melanoma (A375). For comparison purposes, the cytotoxicity of cisplatin was evaluated under the same experimental conditions.
as §1
(§3) Human breast (MCF-7), colon (HCT-15), lung (A549) and pancreatic (BxPC3) carcinoma cell lines together with melanoma (A375) cells were obtained from American Type Culture Collection (ATCC, Rockville, MD). The human ovarian cancer cell line 2008 and its cisplatin resistant variant, C13*, were kindly provided by Prof. G. Marverti (Department of Biomedical Science of Modena University, Italy). Human cervical carcinoma (A431) cells were kindly provided by Prof. F. Zunino (Division of Experimental Oncology B, Istituto Nazionale dei Tumori, Milan, Italy). Cell lines were maintained in the logarithmic phase at 37 °C in a 5% carbon dioxide atmosphere using the following culture media containing 10% fetal calf serum (Euroclone, Milan, Italy), antibiotics (50 units/mL penicillin and 50 μg/mL streptomycin) and 2 mM L-glutamine: (i) RPMI-1640 medium (Euroclone) for 2008, C13*, MCF-7, HCT-15, A431 and BxPC3 cells, (ii) F-12 HAM’S (Sigma Chemical Co.) for A549 cells, iii) DMEM (Sigma Chemical Co.) for A375 cells.
(§4) The growth inhibitory effect toward tumor cells was evaluated by means of the MTT assay. Briefly, (3–8) × 10^3 cells/well, dependent upon the growth characteristics of the cell line, were seeded in 96-well microplates in growth medium (100 μL). After 24 h, the medium was removed and replaced with fresh medium containing the compound to be studied at the appropriate concentration. Triplicate cultures were established for each treatment. After 24, 48, or 72 h, each well was treated with 10 μL of a 5 mg/mL MTT saline solution and, after 5 h of incubation, 100 μL of a sodium dodecylsulfate (SDS) solution in 0.01 M HCl was added. After an overnight incubation, cell growth inhibition was detected by measuring the absorbance of each well at 570 nm using a Bio-Rad 680 microplate reader. The mean absorbance for each drug dose was expressed as a percentage of the control, untreated well absorbance and plotted vs drug concentration. The IC50 values, the drug concentrations that decrease the mean absorbance at 570 nm to 50% of that of untreated control wells, were calculated from the dose–response curves with the four-parameter logistic model (4PL). The final value is the mean ± S.D. of at least three independent experiments performed in triplicate.

The test system of a further data set is A375 melanoma cells. Kind of data set: MTT cytotoxicity test, A375. It counts as cell-based, human. As to conditions: A375, 72 h, ± S.D. The protocol: as §2, §1, §3, §4
The test system of data set [3] is A431 cervical carcinoma cells. Kind of data set: MTT cytotoxicity test, A431. It counts as cell-based, human. The conditions noted are these: A431, 72 h, ± S.D. The protocol: as §2, §1, §3, §4
A short description of data set [4]: Stability in physiological saline by mass spectrometry. The conditions noted are these: 0.9% NaCl. It counts as physicochemical. On the procedure: Ten indole carboxylic acid Pt(IV) complexes with IAA (indole-3-acetic acid, 1A–5A) and IPA (indole-3-propionic acid, 1P–5P) were synthesized and the structures are depicted in Fig. 3. The monocarboxylato complexes 1A and 1P were prepared by reacting oxoplatin, c,c,t-[Pt(NH3)2Cl2(OH)2], with 0.8 eq. of the activated NHS-ester of the corresponding indole carboxylic acid. The dicarboxylato complexes with two indole acids in axial position (2A and 2P) were obtained using an excess of the NHS-ester activated acid (20 eq.), since the second hydroxo group of oxoplatin is much less reactive than the first one. The unsymmetrically substituted complexes (3A–5A and 3P–5P) were prepared by reaction of the monocarboxylate complexes 1A and 1P with the corresponding anhydrides. We chose three different anhydrides (benzoic, acetic and succinic anhydride) to vary the lipophilicity of the resulting Pt(IV) complexes. All the synthesized Pt(IV) complexes were characterized using elemental analysis, ESI-MS, FT-IR, ^1H and ^195Pt NMR spectroscopy. The purity of the complexes has been assessed through elemental analysis and–where solubility was not an issue–by high performance liquid chromatography (HPLC). The dicarboxylato complexes are poorly soluble in organic solvents. The proton NMR spectra of the complexes in DMSO-d6 show the typical signal of the NH3 protons which is a multiplet at around 6 ppm for the monocarboxylato complexes 1P and 1A (typical ^1JNH and ^2JPtH values around 50 Hz) while it is a broad signal around 6.5 ppm for the bis-substituted complexes (2–5A and 2–5P, Supplementary Information)[44]. The mass spectra of the complexes show a peak in the negative mode with the typical platinum isotope pattern corresponding to M − H^− or M + Cl^−. Stability studies on representative examples of the complexes (1A, 1P, 3A and 3P) via mass spectrometry confirm that the complexes are stable in physiological saline (0.9% NaCl) for at least 48 h (Supplementary Information).
Complexes 1A, 1P, 3A and 3P where dissolved in a minimum amount of DMF and diluted 1:20 with physiological saline (0.9% NaCl). Mass spectra were recorded at t = 0 and after 48 hours.

By IC50 is commonly meant the concentration that gives 50% inhibition. A high value points to weaker potency in that assay. In the case of `[NH2][Pt]([NH2])([OH])([Cl])([Cl])[O]C(=O)Cc1c[nH]c2ccccc12` [Complex 1A], the IC50 in data set [1] turned out to be 2.89 ± 1.22 µM; in data set [2], 3.62 ± 0.23 µM; with A375 melanoma cells it was 1.31 ± 0.82 µM; in data set [3] it was 2.1 ± 1.04 µM. In data set [2], the “times more cytotoxic than cisplatin” value is reported as “four times”. Further, the “stable in physiological saline” value in data set [4] was “at least 48 h”.

Take `[NH2][Pt]([NH2])([OH])([Cl])([Cl])[O]C(=O)CCc1c[nH]c2ccccc12` [Complex 1P, cis,cis,trans-[Pt(NH3)2Cl2(IPA)(OH)]]: the IC50 in data set [1] came to 1.45 ± 0.37 µM; in data set [2], 2.66 ± 0.54 µM; with A375 melanoma cells, 0.76 ± 0.02 µM; in data set [3], 1.62 ± 0.34 µM. Also, in data set [2], the “times more cytotoxic than cisplatin” value was “four times”. The “stable in physiological saline” value in data set [4] was “at least 48 h”.

`[NH2][Pt]([NH2])([Cl])([Cl])([O]C(=O)Cc1c[nH]c2ccccc12)[O]C(=O)c1ccccc1` [Complex 3A]: the IC50 was found to be 9.97 ± 3.18 µM in data set [1], 2.59 ± 0.13 µM in data set [2], 3.53 ± 0.6 µM in the data set with A375 melanoma cells and 6.31 ± 0.94 µM in data set [3]. In data set [4], the “stable in physiological saline” value was “at least 48 h”.

In the case of `[NH2][Pt]([NH2])([Cl])([Cl])([O]C(=O)CCC(=O)O)[O]C(=O)Cc1c[nH]c2ccccc12` [Complex 4A], the IC50 was more than 50 µM in data set [1], 18.1 ± 4.32 µM in data set [2], 48.5 ± 1.48 µM with A375 melanoma cells and 3.94 ± 0.57 µM in data set [3].

Regarding `CC(=O)[O][Pt]([NH2])([NH2])([Cl])([Cl])[O]C(=O)Cc1c[nH]c2ccccc12` [Complex 5A], the IC50 in data set [1] was found to be 41.2 ± 0.75 µM; in data set [2] it was 2.8 ± 0.09 µM; in the data set on A375 melanoma cells it was 26.9 ± 4.04 µM; in data set [3] it was 3.07 ± 0.31 µM.

Source of the values: article PMC4941645, “Oxidative Stress Induced by Pt(IV) Pro-drugs Based on the Cisplatin Scaffold and Indole Carboxylic Acids in Axial Position” (Scientific Reports, 2016).
